# Test results taken from patent US20240342116A1, “TARGETING SOX10+ BONE MARROW GLIAL CELLS FOR TREATING MYELOFIBROSIS” (The Trustees of Columbia University in the City of New York, priority 2023, published 2024).
# Entries after “also recorded” stand apart in the source; their conditions may differ.
# Legend:
# [1] = biological target: T1, alarmin complex (S100A8/A9) (Mus musculus, UniProt P31725); conditions: reference 63; cited from earlier work
# T1 sequence (P31725 2-113 limits assumed): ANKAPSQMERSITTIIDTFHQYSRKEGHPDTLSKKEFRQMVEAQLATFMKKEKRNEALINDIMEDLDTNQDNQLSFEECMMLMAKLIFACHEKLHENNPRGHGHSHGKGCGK
# [2] = tested on: Sox10+ glial cells / ErbB3+ glial cells; experiment: Use examples: treatment of a subject with myelofibrosis; conditions: after one or more doses
# Method: The subject is treated with a combined Jak inhibition and ErbB3 pathway inhibition, using, e.g., an antibody or antibody fragment agent which blocks ErbB3. […] The combined treatment targets both the hematopoietic compartment and the bone marrow niche.
# [3] = tested on: Sox10+ glial cells in the bone marrow; experiment: Bone marrow glial cell ablation (chemical sympathectomy) with 6-OHDA in the MPLW515L PMF model
smiles,measurement,setting,value
COc1cccc2c1c(O)c(C(=O)N(C)c1ccc(C(F)(F)F)cc1)c(=O)n2C [tasquinimod],PMF features,[1],ameliorated
"NCCc1cc(O)c(O)cc1O [6-OHDA, 6-hydroxydopamine]",symptom(s) of myelofibrosis,[2],one or more improvements
same,depletion of Sox10+ glial cells in the bone marrow,[3]; 6-OHDA-treated mice,efficiently depleted
same,body weight loss,"[3]; 6-OHDA-treated mice, 50 mg/kg i.v. twice on alternating days",no significant body weight loss
same,bone marrow cellularity,[3]; MPLW515L PMF mice vs vehicle,significant increase
same,liver size / weight,[3]; MPLW515L PMF mice vs vehicle,reduced; also recorded: decreased
same,spleen size / weight,[3]; MPLW515L PMF mice vs vehicle,reduced; also recorded: decreased
same,bone marrow fibrosis,[3]; MPLW515L PMF mice vs vehicle-treated control,significantly reduced; also recorded: ameliorated
same,levels of active TGF-β in the bone marrow,"[3]; bone marrow fluid, ELISA, MPLW515L PMF mice vs vehicle",significantly reduced
same,levels of active TGF-β in the serum,"[3]; serum, ELISA, MPLW515L PMF mice vs vehicle",without affecting
